Reference: US12239646B2, “Cancer diagnostic and treatment” (DANA-FARBER CANCER INSTITUTE, INC., priority 2017, dated 2025)
Entries after “also recorded” stand apart in the source; their conditions may differ. Like-named read-outs stand apart in the source and are kept apart here.

Tests used:
Fusobacterium species = conditions: cited from earlier work; for general susceptibility of the species: background statement on Fusobacterium
[1] = system: F. nucleatum strains isolated from COCA36 primary tumor and derived xenografts; test: Antibiotic sensitivity testing (E-test) of clinical F. nucleatum isolates; format: cell-based, Fusobacterium nucleatum; conditions: for MIC: Fusobacterium nucleatum
Description: FIG. 14: Antibiotic sensitivity testing (E-test) of clinical F. nucleatum isolates. E-test on F. nucleatum strains isolated from COCA36 primary tumor and derived xenografts. All E-tests were carried out in triplicate on both FAA agar. The antibiotics tested were metronidazole (MZ), cefoxitin (FX) and imipenem (IP). All F. nucleatum strains tested were sensitive to cefoxitin and metronidazole in vitro: test range was 0.016 to 256 ug/ml. […] The F. nucleatum strains tested were resistant/hetero-resistant to imipenem in vitro.
A 1 McFarland solution, in TSB, was prepared from Fusobacterium strains grown for 24-48 hours on FAA under anaerobic conditions. Using a sterile cotton swab, each Fusobacterium strain were inoculated onto antibiotic free blood agar (FAA) and E-test strip (bioMérieux) for Metronidazole (MZ), Clindamycin (CM), Cefoxitin (FX) and Imipenem (IP) were incubated for up to 72 hours and sensitivity checked after 48 hours. Each sensitivity assay was conducted in triplicate. An FAA blood plate inoculated with each Fusobacterium strain, but without the E-test strip, was used as a growth control.

[2] = system: PDX tumors (COCA36), tumor cell proliferation; test: In vivo BrdU incorporation assay (IHC) of PDX tumors; design: species or system nude mice (Nu/Nu); conditions: n=6 per arm, three weeks treatment vs vehicle, p=0.0015
Description: Bromodeoxyuridine (BrdUrd) solution (10 mg/mL, 0.2 mL/mouse) was administered via intraperitoneal injection 16 hours after the last dose of metronidazole or vehicle. After 2 additional hours, mice were sacrificed and tumors were fixed in 10% formalin for immunohistochemistry (IHC) analysis. A total of 6 animals per arm, that were treated with metronidazole or the vehicle for three weeks were randomly selected, over two independent trials, for BrdU incorporation analysis. IHC was performed on 4-μm sections of formalin-fixed paraffin-embedded samples. Tissue sections were deparaffinized and rehydrated, and antigen retrieval was performed in 10 mmol/L citrate buffer (pH 6.0) in a 750 W microwave oven at […] for 30 minutes for BrdU staining, BrdU primary antibody (BD Biosciences, #347580) was added at a dilution of 1:100 and incubated for 1 hour at room temperature. Sections were further processed with horseradish peroxidase-conjugated secondary antibody. The reaction was detected by 3,3-diaminobenzidine and hematoxylin staining. Images were obtained with an Olympus CX41 microscope and QCapture software (QImaging).

[3] = system: Fusobacterium-positive PDX tumors (COCA36); test: In vivo metronidazole trial, tumor volume of Fusobacterium-positive PDX; design: species or system nude mice (Nu/Nu); conditions: 100 mg/kg/day oral gavage, approximately 3 weeks, vs vehicle; p=0.0005
Description: Animals bearing tumors (with volumes <250 mm^3) were randomized into statistically identical cohorts and treated with 100 mg/kg/day of metronidazole (Sigma Aldrich, USA), (suspension in 0.5% methylcellulose) or with the vehicle alone (0.5% methylcellulose) by oral gavage, daily, for approximately 3 weeks.
(§1) Nu/nu mice were raised in the specific-pathogen-free (SPF) conditions with autoclaved food and water. For both patient and HT-29 cell derived xenografts, tumor size was measured by caliper every Monday, Wednesday and Friday each week. Tumor volume was calculated using the formula: Volume=0.5×L×W^2 and growth rate was measured by calculating the percentage increase in volume. Tumor measurements were carried out in a blinded approach. Mouse body weight was recorded every 3 to 7 days. Mice were euthanized when the tumor diameter reached 2 cm or following the 3 weeks of drug treatment. Tissues were cryopreserved in Bambanker cell freezing media (Wako Chemicals USA) or snap frozen in liquid nitrogen and stored at −80° C. PDX experiments were performed with 22 (untreated group) and 24 (treated group) mice at timepoint zero, over three independent trials. HT-29 derived xenograft experiments were performed with 20 (untreated group) and 19 (treated group) mice at timepoint zero, over two independent trials. […]

Fusobacterium nucleatum = test: Pilot compound screen for inhibition of Fusobacterium growth (BacTiter Glow luminescence); format: cell-based; conditions: 32 μM, in duplicate, 48 hours anaerobic; hit cut-off 3 SD from mean of neutral controls
Description: FIG. 16 depicts determining threshold to identify inhibitor hits. Neutral Control=untreated F. nucleatum. Inhibitor Control=F. nucleatum treated with metronidazole. 3 SD from mean of neutral controls=−86% inhibition hit cut-off.
FIG. 17 depicts identifying compounds that inhibit Fusobacterium growth. […] 3 SD from mean of neutral controls=−86% inhibition hit cut-off. 34 inhibitory compounds identified.
A pilot screen containing 1,846 compounds (in duplicate), at [32 μM] was carried out. Approximately 1-2×10^6 Fusobacterium nucleatum cells/ml was seeded and incubated anaerobically for 48 hours. The read out was by the addition of BacTiter Glow and luminescence read out.
(§2) A method for determining the threshold to identify inhibitor hits was established and carried out (FIG. 16). […] Validation of inhibitor hits and related compounds was carried out and dose response was determined for 5-FU, carmofur, and tegafur (FIG. 18). Validation of inhibitor hits was also carried out with additional patient CRC isolates of Fusobacterium (FIG. 19). […] Applicants also investigated whether the presence of Fusobacterium in colorectal tumors can explain patient response to 5-FU-based therapies. Data of 91 patient colorectal adenocarcinoma tumors with recurrence were obtained by Fusobacterium culture and bacterial 16s rRNA sequencing analysis.

Fusobacterium = test: Fusobacterium-targeted qPCR on PDX tissue after treatment; format: in vivo, Fusobacterium species in PDX (COCA36) in Nu/Nu mice; conditions: PDX COCA36, metronidazole vs vehicle; p=0.002
Description: A custom TaqMan primer/probe set was used to amplify Fusobacterium species DNA (Integrated DNA technologies, CA) as previously described (28). The cycle threshold (Ct) values for Fusobacterium species were normalized to the amounts of human genomic DNA in each reaction by using a primer and probe set for the prostaglandin transporter (PGT) reference gene, and the fold difference (2^−ΔCt) in Fusobacterium load in tumor tissue was calculated as described before (8). Each reaction contained 100 ng of genomic DNA and was assayed in triplicate in 20 μL reactions containing 1× final concentration TaqMan Universal Master Mix (Applied Biosystems) and each TaqMan Gene Expression Assay (Applied Biosystems), in a 96-well optical PCR plate. Amplification and detection of DNA was performed with the ABI 7300 Real-Time PCR System (Applied Biosystems) using the following reaction conditions: 10 min at 95° C. and 42 cycles of 15 s at 95° C. and 1 min at 60° C. Cycle thresholding (Ct) was calculated using the automated settings (Applied Biosystems). The primer and probe sequences for each TaqMan Gene Expression Assay were as follows (SEQ ID. 1-6): Fusobacterium species forward primer, 5′-[…]-3′; Fusobacterium species reverse primer, 5′-[…]-3′; Fusobacterium species FAM probe, 5′-[…]-3′. […]

[4] = system: Fusobacterium-free xenografts derived from HT-29 colon adenocarcinoma cells; test: In vivo metronidazole trial, Fusobacterium-free HT-29 cell line xenograft; design: species or system nude mice (Nu/Nu); conditions: 100 mg/kg/day oral gavage, approximately 3 weeks, vs vehicle; p>0.05 at all timepoints
Description: For HT-29 cell line xenograft experiments, approximately 1×10^6 HT29 cells were suspended in PBS, mixed 1:1 with Matrigel (BD Biosciences), and injected subcutaneously into the flanks of nude mice (Nu/Nu; Taconic) in a final volume of 100 μL. Following 10-14 days post implantation, mice were randomized into statistically identical cohorts and treated with 100 mg/kg/day of metronidazole (suspension in 0.5% methylcellulose) or with vehicle alone by oral gavage daily for approximately 3 weeks.
as §1, with “trials.” for “trials. HT-29 derived xenograft experiments were performed with 20 (untreated group) and 19 (treated group) mice at timepoint zero, over two independent trials.”

[5] = during chemotherapy for adenocarcinoma of the small bowel; cited from earlier work
[6] = system: patient colorectal cancer isolates of Fusobacterium nucleatum and Fusobacterium necrophorum; test: Validation with additional patient CRC isolates of Fusobacterium; format: cell-based; conditions: compared with plasma levels of treated patients (Takimoto et al. 1999)
Description: FIG. 19 depicts validation of with additional patient CRC isolates of Fusobacterium. […] (Takimoto et al., Clinical cancer research: an official journal of the American Association for Cancer Research 5, 1347-1352 (1999)).
as §2

[7] = system: Fusobacterium-positive colorectal tumors; test: Recurrence/metastasis of patient colorectal adenocarcinoma tumors by Fusobacterium status and 5-FU treatment; conditions: 91 patient tumors with recurrence data; 43 patients treated with 5-FU or a 5-FU prodrug; p<0.05
Description: FIG. 20 illustrates a comparison between tumors treated with 5-FU or a 5-FU prodrug (right panel) and tumors with no treatment (left panel). A total of 91 patient colorectal adenocarcinoma tumors with recurrence data were analyzed by Fusobacterium culture and bacterial 16s rRNA sequencing.
as §2

[8] = system: ETBF induced murine colonic tumors; conditions: DeStefano Shields et al. 2016; cited from earlier work
[9] = system: COCA36F3 F. nucleatum (colorectal cancer isolate); test: Validation of inhibitor hits, dose response curves; format: cell-based, Fusobacterium nucleatum; conditions: 8-point, 2-fold dilutions, range 30-0.23 μM
Description: FIG. 18 depicts validation of inhibitor hits (and related compounds). […] Validation/dose plates: 8-point, 2-fold dilutions, range 30-0.23 μM. Dose Response Curves [0.32-30 μM]: COCA36F3 F. nucleatum (colorectal cancer isolate).
as §2

[10] = E-test on FAA agar, triplicate, test range 0.016 to 256 ug/ml, no bacterial growth at 0.016 ug/ml, read-out: MIC

For penicillin, the “general susceptibility of the species” value (Fusobacterium species) is given as “susceptible”.

In the case of O=C(N[C@H](CO)[C@H](O)c1ccc([N+](=O)[O-])cc1)C(Cl)Cl [chloramphenicol], the “general susceptibility of the species” value (Fusobacterium species) is listed as “susceptible”.

With Cc1ncc([N+](=O)[O-])n1CCO [metronidazole] the “in vitro antibiotic sensitivity (sensitive / resistant)” value ([1]; E-test on FAA agar, triplicate) was “sensitive”, the MIC [1, 10] was less than 0.016 µg/mL and the MIC ([1]; F. nucleatum isolates from the PDX, read-out: minimum inhibitory concentration) was less than 0.016 µg/mL. The “tumor cell proliferation (BrdU incorporation)” value [2] was “reduces tumor growth rate and cancer cell proliferation; also recorded: significant reduction in tumor cell proliferation; also recorded: decreased cancer cell proliferation”, the “tumor growth (percentage tumor volume increase), Fusobacterium-positive PDX” value [3] was “reduces tumor growth rate; also recorded: statistically significant decrease in tumor growth” and the “reported sensitivity of Fusobacteria” value (Fusobacterium species; Lofmark et al. 2010) was “highly sensitive”. The “inhibition of F. nucleatum growth in pilot screen” value (Fusobacterium nucleatum) was “significantly inhibit F. nucleatum growth”, the “Fusobacterium load in the tumor tissue” value (Fusobacterium) was “significant decrease in Fusobacterium load; also recorded: decreases Fusobacterium load” and the “tumor growth (percentage tumor volume increase), Fusobacterium-free HT-29 xenograft” value [4] was “no significant decrease in tumor growth; also recorded: not statistically significant”.

In the case of O=c1[nH]cc(F)c(=O)[nH]1 [5-FU, 5-fluorouracil], the cardiotoxicity [5] is given as “associated with cardiotoxicity”, the “inhibition of Fusobacterium growth, patient CRC isolates” value [6] is given as “inhibits Fusobacterium growth at levels comparable to achievable doses in plasma of treated patients; also recorded: potent inhibitors of Fusobacterium growth; also recorded: within a range comparable to patient plasma levels when receiving 5-fluorouracil infusion” and the “inhibition of Fusobacterium growth, patient CRC isolates” value ([6]; listed as 5-Fluorouracil) is given as “inhibits Fusobacterium growth at levels comparable to achievable doses in plasma of treated patients”. The “inhibition of F. nucleatum growth in pilot screen” value (Fusobacterium nucleatum) was “significantly inhibit F. nucleatum growth; also recorded: potent inhibitor of Fusobacterium growth” and the “recurrence/metastasis of Fusobacterium-positive colorectal tumors” value [7] was “less likely to develop recurrence/metastasis”.

For CO[C@@]1(NC(=O)Cc2cccs2)C(=O)N2C(C(=O)O)=C(COC(N)=O)CS[C@@H]21 [cefoxitin], the “in vitro antibiotic sensitivity (sensitive / resistant)” value ([1]; E-test on FAA agar, triplicate) is given as “sensitive”, the MIC [1, 10] is given as less than 0.016 µg/mL and the “tumorigenesis in ETBF induced murine colonic tumors” value [8] is given as “reduction in tumorigenesis”.

In the case of CCCCCCNC(=O)n1cc(F)c(=O)[nH]c1=O [carmofur], the “inhibition of Fusobacterium growth, dose response validation” value [9] is reported as “even more potent in killing Fusobacterium than the active drug 5-FU” and the “inhibition of Fusobacterium growth, dose response validation” value ([9]; listed as Carmofur) is reported as “potent inhibitor of Fusobacterium growth”.

In the case of CC[C@H]1OC(=O)[C@H](C)[C@@H](O[C@H]2C[C@@](C)(OC)[C@@H](O)[C@H](C)O2)[C@H](C)[C@@H](O[C@@H]2O[C@H](C)C[C@H](N(C)C)[C@H]2O)[C@](C)(O)C[C@@H](C)C(=O)[C@H](C)[C@@H](O)[C@]1(C)O [erythromycin], the “general susceptibility of the species” value (Fusobacterium species) is given as “resistant”.
